Results on two compounds are retold here after US7456177B2, “Heteroaryl fused azapolycyclic compounds” (Pfizer Inc., priority 2003, dated 2008).

As a reminder, the melting point is the temperature of the solid-liquid transition. The compound `CN1CC2Cc3cccnc3C(C2)C1.Cl.Cl` (centres unmarked) displayed a melting point of 260 to 266 °C.

`Cn1nc2c3c(cccc3c1=O)C1CNCC2C1` (centres unmarked) displayed a melting point of 320 to 322 °C.
